In patent US6338854B1, “Photoaging skin-care preparation and method of treating wrinkled skin” (Pola Chemical Industries, Inc., priority 1996, dated 2002):

How the values were obtained:
Type in all cases: in vivo
[1] = system: wrinkles on the back skin due to photoaging, hairless mice; experiment: UV wrinkle model amelioration test; details: 9 weeks, 10 mice; for Number of Mice (number) +: +: Wrinkle-ameliorating effect was observed; for Number of Mice (number) ±: ±: Slight wrinkle-ameliorating effect; for Number of Mice (number) −: −: No wrinkle-ameliorating effect
Experimental: UV wrinkle model amelioration tests were conducted with the benzyl ursolate, methoxybenzyl oleanolate, phenylbenzyl betulate, benzoyl oleanolate, methoxybenzoyl betulate, and phenylpropionyl ursolate obtained in the above described Production Examples on hairless mice (5-week old, female) as test animals.
UVB (60 mJ/cm^2) was irradiated to the back skin of each animal of a test group consisting of 10 hairless mice once a day in a frequency of 5 days a week and after 8 weeks formation of wrinkles on the back skin due to photoaging was confirmed. Thereafter, 100 μl of ethanol solutions containing the aromatic compound derivatives of triterpenoid obtained in the Production Examples in concentrations shown in Table 3 were applied thereon once a day in a frequency of 5 days a week. After 9 weeks from the initiation of applying, the degree of ameliorating wrinkles in the skin due to photoaging were evaluated with naked eyes according to the following evaluation criteria.
−: No wrinkle-ameliorating effect was observed.
±: Slight wrinkle-ameliorating effect was observed.
+: Wrinkle-ameliorating effect was observed.
For comparison, ethanol solutions containing of palmitoyl oleanolate or 2-ethylhexyl 2-ethylhexanoyl ursolate in 1% concentration, hitherto used as drugs having a photoaging inhibiting effect, and neat ethanol as a control were applied to hairless mice after UVB irradiation in the same manner as described above and wrinkle-ameliorating effects were evaluated, respectively.

Hartley guinea pigs [2] = experiment: Skin irritation test (24 hours' closed patch test)
Source text: Skin irritation tests of benzyl ursolate, methoxybenzyl oleanolate, nitrobenzyl betulate, naphthylmethyl ursolate, diphenylmethyl oleanolate, benzoyl oleanolate, methoxybenzoyl betulate, and phenylpropionyl ursolate obtained in the above-described Production Examples were made using Hartley guinea pigs (300 to 500 g, female) as test animals.
For test groups each consisting of 6 guinea pigs, the hair on the back of each guinea pig was removed or shaven and on the hair-removed or shaven portion was applied a plastic adhesive plaster which a cloth patch of 15 mm in diameter impregnated with 50 mg of white vaseline containing a 10% by weight of one of the aromatic compound derivatives of triterpenoid obtained in the Production Examples described above was attached, and then 24 hours' closed patch test was performed. After the closed patch tests were completed, the resulting skin reactions after the removal of the plastic adhesive plasters were evaluated immediately (after 0 hour) and after 24 hours respectively, according to the evaluation criteria below and an average score was calculated based on the results obtained 6 animals in each test group.
(§1) 0: No skin reaction being observed
(§2) 1: Weak or unclearly bordered erythema
(§3) 3: Reaction accompanying edema
(§4) 4: Reaction of ulcer, necrosis, or the like
As a control, the above-described test and evaluation were conducted with only white vaseline.

Hartley guinea pigs [3] = experiment: Allergy test (maximization method); details: skin reaction 24 hours after patch removal, scale 0-4
Source text: Allergy tests of benzyl ursolate, methoxybenzyl oleanolate, phenylbenzyl betulate, benzoyl oleanolate, methoxybenzoyl betulate, and phenylpropionyl ursolate obtained in the above-described Production Examples were made using Hartley guinea pigs (300 to 500 g, female) as test animals.
For test groups each consisting of 6 guinea pigs were applied each an aromatic compound derivative of triterpenoid to a concentration of 3 w/v % in olive oil, an aromatic compound derivative of triterpenoid to a concentration of 0.3 w/v % in olive oil, and neat olive oil, respectively, by a maximization method to perform sensitization induction.
Thereafter, in order to induce sufficient immunoresponse, after a grace period of 10 days from the day when the final sensitization was made, there was applied to the back skin of each guinea pig a patch plate having 1.5 cm diameter coated with 100 μl of an aromatic compound derivative of triterpenoid to a concentration of 3 w/v % in olive oil, an aromatic compound derivative of triterpenoid to a concentration of 0.3 w/v % in olive oil, or neat olive oil, and the patch plate was removed after 24 hours. The resulting skin reaction after 24 hours from the removal of the patch plate was evaluated according to the following evaluation criteria and an average score was calculated for each test group.
as §1, §2, §3, §4

[4] = skin reaction 24 hours after plaster removal, 10% by weight in white vaseline, 24 hours' closed patch, average of 6 guinea pigs, scale 0-4
[5] = skin reaction immediately after plaster removal, 10% by weight in white vaseline, 24 hours' closed patch, average of 6 guinea pigs, scale 0-4
[6] = 3%-challenge patch, 3 w/v % in olive oil

CCCCC(CC)COC(=O)[C@]12CC[C@@H](C)[C@H](C)[C@H]1C1=CC[C@@H]3[C@@]4(C)CC[C@H](OC(=O)C(CC)CCCC)C(C)(C)[C@@H]4CC[C@@]3(C)[C@]1(C)CC2 (stereo partly drawn) [2-Ethylhexyl 2-ethylhexanoyl ursolate, 2-ethylhexyl 2-ethylhexanoyl ursolate, reference compound]
Number of Mice (number) + ([1]; 1.0 w/v% in ethanol): 6 number | Number of Mice (number) ± ([1]; 1.0 w/v% in ethanol): 4 number | Number of Mice (number) − ([1]; 1.0 w/v% in ethanol): 0 number

C=C(C)C1CCC2(C(=O)OCc3ccc([N+](=O)[O-])cc3)CCC3(C)C(CCC4C5(C)CCC(O)C(C)(C)C5CCC43C)C12 (stereo not drawn) [Nitrobenzyl betulate, nitrobenzyl betulate]
Score (Average) After 0 hour (Hartley guinea pigs [2]; guinea pig, in vivo): 0 | Score (Average) After 24 hours (Hartley guinea pigs [2]; guinea pig, in vivo): 0

CCCCCCCCCCCCCCCC(=O)OC1CCC2(C)C(CCC3(C)C2CC=C2C4CC(C)(C)CCC4(C(=O)O)CCC23C)C1(C)C (stereo not drawn) [Palmitoyl oleanolate, palmitoyl oleanolate, reference compound]
Number of Mice (number) + ([1]; 1.0 w/v% in ethanol): 7 number | Number of Mice (number) ± ([1]; 1.0 w/v% in ethanol): 3 number | Number of Mice (number) − ([1]; 1.0 w/v% in ethanol): 0 number

C[C@H]1[C@H](C)CC[C@]2(C(=O)OCc3ccccc3)CC[C@]3(C)C(=CC[C@@H]4[C@@]5(C)CC[C@H](O)C(C)(C)[C@@H]5CC[C@]43C)[C@H]12 [Benzyl ursolate, benzyl ursolate]
Score (Average) After 24 hours (Hartley guinea pigs [2]; [4]): 0 | Score (Average) After 0 hour (Hartley guinea pigs [2]; [5]): 0 | Evaluation Score (Average), 3%-induced group (Hartley guinea pigs [3]; 0.3%-challenge patch): 0 | Evaluation Score (Average), Olive oil induced group (Hartley guinea pigs [3]; 0.3%-challenge patch): 0 | Evaluation Score (Average), 0.3%-induced group (Hartley guinea pigs [3]; 0.3%-sensitized group): 0.17 | Evaluation Score (Average), 3%-induced group (Hartley guinea pigs [3]; [6]): 0.17 | Evaluation Score (Average), Olive oil induced group (Hartley guinea pigs [3]; 3%-challenge patch): 0.33 | Evaluation Score (Average), 0.3%-induced group (Hartley guinea pigs [3]; 3%-sensitized group): 0 | Evaluation Score (Average), 3%-induced group (Hartley guinea pigs [3]; Olive oil-challenge patch): 0 | Evaluation Score (Average), 0.3%-induced group (Hartley guinea pigs [3]; Olive oil-sensitized group): 0 | Number of Mice (number) + ([1]; 0.005 w/v% in ethanol, 100 μl once a day 5 days a week): 9 number | Number of Mice (number) ± ([1]; 0.005 w/v% in ethanol): 1 number | Number of Mice (number) − ([1]; 0.005 w/v% in ethanol): 0 number

C[C@H]1[C@H](C)CC[C@]2(C(=O)O)CC[C@]3(C)C(=CC[C@@H]4[C@@]5(C)CC[C@H](OC(=O)CCc6ccccc6)C(C)(C)[C@@H]5CC[C@]43C)[C@H]12 [Phenylpropionyl ursolate, phenylpropionyl ursolate]
Score (Average) After 24 hours (Hartley guinea pigs [2]; [4]): 0 | Score (Average) After 0 hour (Hartley guinea pigs [2]; [5]): 0 | Evaluation Score (Average), 3%-induced group (Hartley guinea pigs [3]; 0.3%-challenge patch): 0.17 | Evaluation Score (Average), Olive oil induced group (Hartley guinea pigs [3]; 0.3%-challenge patch): 0 | Evaluation Score (Average), 0.3%-induced group (Hartley guinea pigs [3]; 0.3%-sensitized group): 0 | Evaluation Score (Average), 3%-induced group (Hartley guinea pigs [3]; [6]): 0 | Evaluation Score (Average), Olive oil induced group (Hartley guinea pigs [3]; 3%-challenge patch): 0 | Evaluation Score (Average), 0.3%-induced group (Hartley guinea pigs [3]; 3%-sensitized group): 0 | Evaluation Score (Average), 3%-induced group (Hartley guinea pigs [3]; Olive oil-challenge patch): 0 | Evaluation Score (Average), 0.3%-induced group (Hartley guinea pigs [3]; Olive oil-sensitized group): 0 | Number of Mice (number) + ([1]; 0.05 w/v% in ethanol): 7 number | Number of Mice (number) ± ([1]; 0.05 w/v% in ethanol): 3 number | Number of Mice (number) − ([1]; 0.05 w/v% in ethanol): 0 number

naphthylmethyl ursolate
Score (Average) After 24 hours (Hartley guinea pigs [2]; [4]): 0 | Score (Average) After 0 hour (Hartley guinea pigs [2]; [5]): 0

C=C(C)C1CCC2(C(=O)OCc3ccc(-c4ccccc4)cc3)CCC3(C)C(CCC4C5(C)CCC(O)C(C)(C)C5CCC43C)C12 (stereo not drawn) [Phenylbenzyl betulate, phenylbenzyl betulate]
Number of Mice (number) + ([1]; 0.05 w/v% in ethanol): 8 number | Number of Mice (number) ± ([1]; 0.05 w/v% in ethanol): 2 number | Number of Mice (number) − ([1]; 0.05 w/v% in ethanol): 0 number

CC1(C)CC[C@]2(C(=O)O)CC[C@]3(C)C(=CC[C@@H]4[C@@]5(C)CC[C@H](OC(=O)c6ccccc6)C(C)(C)[C@@H]5CC[C@]43C)[C@@H]2C1 [Benzoyl oleanolate, benzoyl oleanolate]
Score (Average) After 24 hours (Hartley guinea pigs [2]; [4]): 0 | Score (Average) After 0 hour (Hartley guinea pigs [2]; [5]): 0 | Evaluation Score (Average), 3%-induced group (Hartley guinea pigs [3]; 0.3%-challenge patch): 0 | Evaluation Score (Average), Olive oil induced group (Hartley guinea pigs [3]; 0.3%-challenge patch): 0 | Evaluation Score (Average), 0.3%-induced group (Hartley guinea pigs [3]; 0.3%-sensitized group): 0 | Evaluation Score (Average), 3%-induced group (Hartley guinea pigs [3]; [6]): 0 | Evaluation Score (Average), Olive oil induced group (Hartley guinea pigs [3]; 3%-challenge patch): 0 | Evaluation Score (Average), 0.3%-induced group (Hartley guinea pigs [3]; 3%-sensitized group): 0 | Evaluation Score (Average), 3%-induced group (Hartley guinea pigs [3]; Olive oil-challenge patch): 0 | Evaluation Score (Average), 0.3%-induced group (Hartley guinea pigs [3]; Olive oil-sensitized group): 0 | Number of Mice (number) + ([1]; 0.01 w/v% in ethanol): 6 number | Number of Mice (number) ± ([1]; 0.01 w/v% in ethanol): 4 number | Number of Mice (number) − ([1]; 0.01 w/v% in ethanol): 0 number

C=C(C)C1CCC2(C(=O)O)CCC3(C)C(CCC4C5(C)CCC(OC(=O)c6ccc(OC)cc6)C(C)(C)C5CCC43C)C12 (stereo not drawn) [Methoxybenzoyl betulate, methoxybenzoyl betulate]
Score (Average) After 0 hour (Hartley guinea pigs [2]; guinea pig, in vivo): 0 | Score (Average) After 24 hours (Hartley guinea pigs [2]; guinea pig, in vivo): 0 | Number of Mice (number) + ([1]; 0.01 w/v% in ethanol): 8 number | Number of Mice (number) ± ([1]; 0.01 w/v% in ethanol): 2 number | Number of Mice (number) − ([1]; 0.01 w/v% in ethanol): 0 number

COc1ccc(COC(=O)[C@]23CCC(C)(C)C[C@H]2C2=CC[C@@H]4[C@@]5(C)CC[C@H](O)C(C)(C)[C@@H]5CC[C@@]4(C)[C@]2(C)CC3)cc1 [Methoxybenzyl oleanolate, methoxybenzyl oleanolate]
Score (Average) After 24 hours (Hartley guinea pigs [2]; [4]): 0 | Score (Average) After 0 hour (Hartley guinea pigs [2]; [5]): 0 | Evaluation Score (Average), 3%-induced group (Hartley guinea pigs [3]; 0.3%-challenge patch): 0 | Evaluation Score (Average), Olive oil induced group (Hartley guinea pigs [3]; 0.3%-challenge patch): 0.17 | Evaluation Score (Average), 0.3%-induced group (Hartley guinea pigs [3]; 0.3%-sensitized group): 0 | Evaluation Score (Average), 3%-induced group (Hartley guinea pigs [3]; [6]): 0.33 | Evaluation Score (Average), Olive oil induced group (Hartley guinea pigs [3]; 3%-challenge patch): 0.17 | Evaluation Score (Average), 0.3%-induced group (Hartley guinea pigs [3]; 3%-sensitized group): 0 | Evaluation Score (Average), 3%-induced group (Hartley guinea pigs [3]; Olive oil-challenge patch): 0.17 | Evaluation Score (Average), 0.3%-induced group (Hartley guinea pigs [3]; Olive oil-sensitized group): 0.17 | Number of Mice (number) + ([1]; 0.01 w/v% in ethanol): 7 number | Number of Mice (number) ± ([1]; 0.01 w/v% in ethanol): 3 number | Number of Mice (number) − ([1]; 0.01 w/v% in ethanol): 0 number

CC1(C)CC[C@]2(C(=O)OC(c3ccccc3)c3ccccc3)CC[C@]3(C)C(=CC[C@@H]4[C@@]5(C)CC[C@H](O)C(C)(C)[C@@H]5CC[C@]43C)[C@@H]2C1 [Diphenylmethyl oleanolate, diphenylmethyl oleanolate]
Score (Average) After 24 hours (Hartley guinea pigs [2]; [4]): 0 | Score (Average) After 0 hour (Hartley guinea pigs [2]; [5]): 0
